Experimental data published in US11406714B2, “Telodendrimers and nanocarriers and methods of using same” (The Research Foundation for the State University of New York, priority 2013, dated 2022).
“Also recorded” adds a separate entry of the source.

Columns and labels:
[1] = Maximum tolerated dose (MTD) study; assay type: in vivo
Experimental: FIG. 24. An example of body weight lost for an animal treated with DOX loaded PEG^5kCA4-L-Rh4 at different dosage level, as well as the empty micelles for the test of the MTD studies. Among, the 15 mg/Kg dosage was repeated at day 0 and day 4 to study the MTD of multiple dosages.

Raji lymphoma xenograft [2] = test: In vivo cancer treatment; parameters: species or system nude mice; details: 10 mg/kg, days 0, 4 and 8, intravenous
Experimental: (§1) Female athymic nude mice (Nu/Nu strain), 6-8 weeks age, were purchased from Harlan. All animals were kept under pathogen-free conditions according to AAALAC (Association for Assessment and Accreditation of Laboratory Animal Care) guidelines and were allowed to acclimatize for at least 4 days prior to any experiments. All animal experiments were performed in compliance with institutional guidelines and according to protocol approved by the Committee for the Humane Use of Animals of State University of New York Upstate Medical University. Subcutaneous tumor xenograft mouse models were established by injecting 1×10^7 HT-29 or raji cancer cells in a 100 μL of mixture of PBS and Matrigel (1:1 v/v) subcutaneously at the right flank in female nude mice.
Subcutaneous Raji lymphoma xenograft mouse model was used to evaluate the therapeutic efficacy of different formulations of DOX. […] Tumor sizes were measured with a digital caliper twice per week. Tumor volume was calculated by the formula (L×W^2)/2, where L is the longest, and W is the shortest in tumor diameters (mm). To compare between groups, relative tumor volume (RTV) was calculated at each measurement time point (where RTV equals the tumor volume at given time point divided by the tumor volume prior to initial treatment). […]

[3] = tested on: HT-29 colon cancer xenografts; test: In vivo and ex vivo NIRF imaging and biodistribution; parameters: species or system nude mice
Experimental: as §1
(§2) Nude mice with subcutaneous tumors of an approximate 8 to 10 mm in diameter were subjected to in vivo NIRF optical imaging. At different time points post-injection of DiD and chemodrug (PTX or DOX or GA) co-loaded micelles (the mass ratio of DiD and PTX within nanocarrier was […]), mice were scanned using a IVIS-200 small animal imager at cy5.5 excitation and emission channels. The mice were anaesthetized by isofluorane gas before and during each imaging. After in vivo imaging, animals were euthanized by CO2 overdose after the last in vivo imaging. Tumors and major organs were excised and imaged with the IVIS-200 small animal imager.

Raji lymphoma xenograft [4] = test: as above; parameters: species or system nude mice; details: tail vein injection
Experimental: as §1, §2

Row | SMILES | MTD of free DOX [1] [mg/kg] | Tumor response (Raji lymphoma xenograft [2]) | Ex vivo biodistribution of fluorescence signal ([3]; after last in vivo imaging) | In vivo tumor targeting (fluorescence imaging) ([3]; tail vein injection, DiD signal) | Biodistribution of fluorescence signal (Raji lymphoma xenograft [4])
1 | COc1cccc2c1C(=O)c1c(O)c3c(c(O)c1C2=O)C[C@@](O)(C(=O)CO)C[C@@H]3O[C@H]1C[C@H](N)[C@H](O)[C@H](C)O1 [DOX, Doxorubicin] | 10 | the cancer progression was slowed down |  |  | 
2 | CCCCCCCCCCCCCCCCCCN1C(=CC=CC=CC2=[N+](CCCCCCCCCCCCCCCCCC)c3ccccc3C2(C)C)C(C)(C)c2ccccc21.[O-][Cl+3]([O-])([O-])[O-] [DiD, 1,1′-dioctadecyl-3,3,3′,3′-tetramethylindodicarbocyanine perchlorate] |  |  | high uptake in liver, lung and spleen and low uptake in tumor; also recorded: high uptake of fluorescent signal in spleen and lung | nonspecific binding and low tumor uptake | high fluorescent uptake in the liver, lung and spleen and weak signal in the tumor
